Like-named read-outs stand apart in the source and are kept apart here.
Biological target: T1, ligand binding domain of human RORγ (A262-S507) (Homo sapiens, UniProt P51449)
T1 construct: made in house; host or cells: E. coli
T1 sequence (P51449 262-507): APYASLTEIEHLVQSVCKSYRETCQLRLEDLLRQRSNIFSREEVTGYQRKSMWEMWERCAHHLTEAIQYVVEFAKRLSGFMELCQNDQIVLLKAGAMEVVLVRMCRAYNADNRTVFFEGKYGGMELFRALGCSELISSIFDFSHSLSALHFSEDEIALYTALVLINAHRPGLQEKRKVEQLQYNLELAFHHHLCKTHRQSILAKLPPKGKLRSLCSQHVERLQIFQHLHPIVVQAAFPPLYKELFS
Assay: General RORγ SPA binding assay (competition with [3H]25-hydroxycholesterol)
Conditions: inhibition of [3H]25-hydroxycholesterol binding
How it was run: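 Step one: compound meets 50 nM nickel-purified, His-tagged protein from E. coli for 15 min at room temperature (PBS, 0.5% fatty acid free BSA). Step two: radioligand is added for another 15 min. Step three: SPA beads are added for 30 min before scintillation reading and IC50 fitting.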

[1] = RORγ SPA binding assay, read-out: IC50

IC50 [1] [nM] | SMILES | IC50 (IC50, RORγ SPA binding assay) [nM]
21.7 | CNc1nc(C)nc(C2CCN(C(=O)Cc3c(F)cccc3F)CC2)c1C(=O)NCc1cc(C)cc(C)c1 [Compound A108, 4-(1-(2-(2,6-Difluorophenyl)acetyl)piperidin-4-yl)-N-(3,5-dimethylbenzyl)-2-methyl-6-(methylamino)pyrimidine-5-carboxamide] | 
202 | NCCNc1ncc(C(=O)NCc2cccc(Cl)c2)c(C2CCN(C(=O)Cc3c(F)cccc3F)CC2)n1 [Compound A96, 2-((2-aminoethyl)amino)-N-(3-chlorobenzyl)-4-(1-(2-(2,6-difluorophenyl)acetyl)piperidin-4-yl)pyrimidine-5-carboxamide] | 
720 | Cc1cc(C)cc(CNC(=O)c2cnc(C)nc2C2CCN(C(=O)Cc3cc(F)cc(F)c3)CC2)c1 [Compound A27, 4-(1-(2-(3,5-difluorophenyl)acetyl)piperidin-4-yl)-N-(3,5-dimethylbenzyl)-2-methylpyrimidine-5-carboxamide] | 
235 | Cc1cc(C)cc(CNC(=O)c2cnc(C)nc2C2CCN(C(=O)Cc3cccc(F)c3)CC2)c1 [Compound A22, N-(3,5-dimethylbenzyl)-4-(1-(2-(3-fluorophenyl)acetyl)piperidin-4-yl)-2-methylpyrimidine-5-carboxamide] | 
76.1 | Cc1ncc(C(C)(O)CNc2nccc(C(F)(F)F)n2)c(C2CCN(C(=O)Nc3c(F)cccc3C(F)(F)F)CC2)n1 (stereo not drawn) [Compound D22, N-[2-Fluoro-6-(trifluoromethyl)phenyl]-4-[5-(1-hydroxy-1-methyl-2-{[4-(trifluoromethyl)pyrimidin-2-yl]amino}ethyl)-2-methylpyrimidin-4-yl]piperidine-1-carboxamide] | 
5.7 | Cc1ncc(C(O)(CO)COc2cccc(C(F)(F)F)n2)c(C2CCN(C(=O)Nc3c(F)cccc3F)CC2)n1 (stereo not drawn) [Compound N32, N-(2,6-Difluorophenyl)-4-{5-[1,2-dihydroxy-1-({[6-(trifluoromethyl)pyridin-2-yl]oxy}methyl)ethyl]-2-methylpyrimidin-4-yl}piperidine-1-carboxamide] | 
85 | Cc1cc(C(F)(F)F)nc(CNC(=O)c2cnc(C)nc2C2CCN(C(=O)Cc3c(F)cccc3F)CC2)n1 [Compound A67, 4-(1-(2-(2,6-difluorophenyl)acetyl)piperidin-4-yl)-2-methyl-N-((4-methyl-6-(trifluoromethyl)pyrimidin-2-yl)methyl)pyrimidine-5-carboxamide] | 
 | Nc1ncc(C(=O)COc2cccc(C(F)(F)F)n2)c(C2CCN(C(=O)Oc3ccccc3F)CC2)n1 [Compound M14, 2-Fluorophenyl 4-[2-amino-5-({[6-(trifluoromethyl)pyridin-2-yl]oxy}acetyl)pyrimidin-4-yl]piperidine-1-carboxylate] | 485
6 | O=C(NCc1cccc(Cl)c1)c1cnc(C2CC2)nc1C1CCN(C(=O)Cc2c(F)cccc2F)CC1 [Compound A45, N-(3-chlorobenzyl)-2-cyclopropyl-4-(1-(2-(2,6-difluorophenyl)acetyl)piperidin-4-yl)pyrimidine-5-carboxamide] | 
3.1 | C/C(=N\Oc1cccc(C(F)(F)F)c1)c1cnc(C)nc1C1CCN(C(=O)Cc2c(F)cccc2F)CC1 [Compound B3, (E)-2-(2,6-Difluorophenyl)-1-(4-(2-methyl-5-(1-(3-(trifluoromethyl)phenoxyimino)ethyl)pyrimidin-4-yl)piperidin-1-yl)ethanone] | 
49.7 | Cc1nc(C)c(-c2nnc(-c3ccnc(C(F)(F)F)n3)o2)c(C2CCN(C(=O)Nc3ccccc3C(F)(F)F)CC2)n1 [Compound C30, 4-(2,6-dimethyl-5-{5-[2-(trifluoromethyl)pyrimidin-4-yl]-1,3,4-oxadiazol-2-yl}pyrimidin-4-yl)-N-[2-(trifluoromethyl)phenyl]piperidine-1-carboxamide] | 
2.9 | Cc1ncc(C(O)(CN=[N+]=[N-])COc2cccc(C(F)(F)F)n2)c(C2CCN(C(=O)Nc3c(F)cccc3F)CC2)n1 (stereo not drawn) [Compound N33, 4-{5-[2-Azido-1-hydroxy-1-({[6-(trifluoromethyl)pyridin-2-yl]oxy}methyl)ethyl]-2-methylpyrimidin-4-yl}-N-(2,6-difluorophenyl)piperidine-1-carboxamide] | 
12.1 | Cc1nc(C)c(C(=O)NNc2cccc(Cl)c2)c(C2CCN(C(=O)Cc3c(F)cccc3F)CC2)n1 [Compound G4, N′-(3-chlorophenyl)-4-(1-(2-(2,6-difluorophenyl)acetyl)piperidin-4-yl)-2,6-dimethylpyrimidine-5-carbohydrazide] | 
26 | Cc1ncc(C(=O)COc2cccc(Cl)c2)c(C2CCN(C(=O)Cc3c(F)cccc3F)CC2)n1 [Compound M1, 2-(3-Chlorophenoxy)-1-(4-(1-(2-(2,6-difluorophenyl)acetyl)piperidin-4-yl)-2-methylpyrimidin-5-yl)ethanone] | 
108 | Cc1nc(N)nc(C2CCN(C(=O)Nc3c(F)cccc3F)CC2)c1-c1cnc(-c2ccnc(C(F)(F)F)n2)o1 [Compound C70, 4-(2-Amino-6-methyl-5-{2-[2-(trifluoromethyl)pyrimidin-4-yl]-1,3-oxazol-5-yl}pyrimidin-4-yl)-N-(2,6-difluorophenyl)piperidine-1-carboxamide] | 
8 | C/C(=N\Oc1cccc(C(F)(F)F)c1)c1cnc(C)nc1C1CCN(C(=O)Nc2c(F)cccc2C(F)(F)F)CC1 [Compound B45, N-[2-fluoro-6-(trifluoromethyl)phenyl]-4-{2-methyl-5-[(1E)-N-{[3-(trifluoromethyl)phenyl]oxy}ethanimidoyl]pyrimidin-4-yl}piperidine-1-carboxamide] | 
158 | C/C(=N\Oc1ccnc(C(F)(F)F)n1)c1cnc(C)nc1C1CCN(C(=O)Nc2c(F)cccc2F)CC1 [Compound B36, N-(2,6-Difluorophenyl)-4-{2-methyl-5-[(1E)-N-{[2-(trifluoromethyl)pyrimidin-4-yl]oxy}ethanimidoyl]pyrimidin-4-yl}piperidine-1-carboxamide] | 
37.1 | Cc1cc(C)cc(CNC(=O)c2cnc(C)nc2C2CCN(C(=O)C(F)(F)c3c(F)cccc3F)CC2)c1 [Compound A116, 4-{1-[(2,6-Difluorophenyl)(difluoro)acetyl]piperidin-4-yl}-N-[(3,5-dimethylphenyl)methyl]-2-methylpyrimidine-5-carboxamide] | 
115 | CCNc1ncc(/C(C)=N/Oc2ccnc(C(F)(F)F)c2)c(C2CCN(C(=O)Nc3c(F)cccc3F)CC2)n1 [Compound B60, N-(2,6-Difluorophenyl)-4-{2-(ethylamino)-5-[(1E)-N-{[2-(trifluoromethyl)pyridin-4-yl]oxy}ethanimidoyl]pyrimidin-4-yl}piperidine-1-carboxamide] | 
47.8 | CCNC(=O)NCC(O)(COc1cccc(C(F)(F)F)n1)c1cnc(C)nc1C1CCN(C(=O)Nc2c(F)cccc2F)CC1 (stereo not drawn) [Compound N36, N-(2,6-Difluorophenyl)-4-{5-[2-{[(ethylamino)carbonyl]amino}-1-hydroxy-1-({[6-(trifluoromethyl)pyridin-2-yl]oxy}methyl)ethyl]-2-methylpyrimidin-4-yl}piperidine-1-carboxamide] | 
29.9 | Cc1cc(C)cc(CNC(C)c2cnc(C)nc2C2CCN(C(=O)Cc3c(F)cccc3F)CC2)c1 (stereo not drawn) [Compound F9, 2-(2,6-Difluorophenyl)-1-(4-(5-(1-(3,5-dimethylbenzylamino)ethyl)-2-methylpyrimidin-4-yl)piperidin-1-yl)ethanone] | 
3720 | Cc1ncc(C(=NOc2cccc(F)c2)C(F)(F)F)c(C2CCN(C(=O)Cc3c(F)cccc3F)CC2)n1 (mixture of isomers) [Compound B29, (Z)-2-(2,6-Difluorophenyl)-1-(4-(2-methyl-5-(2,2,2-trifluoro-1-(3-fluorophenoxyimino)ethyl)pyrimidin-4-yl)piperidin-1-yl)ethanone] | 
54 | C/C(=N\Oc1cccc(C(F)(F)F)c1)c1c(C)nc(C)nc1C1CCN(C(=O)Cc2c(F)cccc2F)CC1 [Compound B1, (1E)-1-(4-{1-[(2,6-Difluorophenyl)acetyl]piperidin-4-yl}-2,6-dimethylpyrimidin-5-yl)ethanone O-[3-(trifluoromethyl)phenyl]] | 
 | CC(O)(COc1cccc(C(F)(F)F)n1)c1cnc(N)nc1C1CCN(C(=O)Oc2c(F)cccc2F)CC1 (stereo not drawn) [Compound D48, 2,6-Difluorophenyl 4-[2-amino-5-(1-hydroxy-1-methyl-2-{[6-(trifluoromethyl)pyridin-2-yl]oxy}ethyl)pyrimidin-4-yl]piperidine-1-carboxylate] | 30.3
46 | Cc1cc(C)cc(CC=Cc2cnc(C)nc2C2CCN(C(=O)Cc3c(F)cccc3F)CC2)c1 (mixture of isomers) [Compound J1, (E)-2-(2,6-Difluorophenyl)-1-(4-(5-(3-(3,5-dimethylphenyl)prop-1-enyl)-2-methylpyrimidin-4-yl)piperidin-1-yl)ethanone] | 
1450 | Cc1cc(C)cc(CNC(=O)c2cnc(C)nc2C2CCN(C(=O)Cc3cccc(C)c3)CC2)c1 [Compound A30, N-(3,5-dimethylbenzyl)-2-methyl-4-(1-(2-(m-tolyl)acetyl)piperidin-4-yl) pyrimidine-5-carboxamide] | 

SMILES | IC50 [1] [nM] | IC50 (IC50, RORγ SPA binding assay) [nM]
Nc1ncc(C(O)COc2ccnc(C(F)(F)F)n2)c(C2CCN(C(=O)Oc3c(F)cccc3F)CC2)n1 (stereo not drawn) [Compound N13, 2,6-Difluorophenyl 4-[2-amino-5-(1-hydroxy-2-{[2-(trifluoromethyl)pyrimidin-4-yl]oxy}ethyl)pyrimidin-4-yl]piperidine-1-carboxylate] | 6.8 | 
